Assay results: PMC9307952, “Lipoate protein ligase B primarily recognizes the C8-phosphopantetheine arm of its donor substrate and weakly binds the acyl carrier protein” (The Journal of Biological Chemistry, 2022)

Columns and labels:
[1] = target: T1, E. coli LipB (EcLipB) (Escherichia coli, UniProt P60720, K135A/C169A); settings: 15N-labelled inactive double mutant, C8-CoA up to 1:2 molar ratio
[2] = target: E. coli LipB (EcLipB) (Escherichia coli, UniProt P60720, G72A/G73A); settings: CoA:LipB 10:1 (STD, 283 K) or 8:1 (31P, 298 K), 50 mM Tris, 200 mM NaCl, pH 7.8
[3] = target: E. coli LipB (EcLipB) (Escherichia coli, UniProt P60720, C169A); settings: CoA:LipB 8:1, 50 mM Tris, 200 mM NaCl, pH 7.8, 298 K
[4] = target: T1, E. coli LipB (EcLipB); settings: CoA:LipB 10:1, 50 mM Tris, 200 mM NaCl, pH 7.8, 283 K
[5] = target: E. coli LipB (EcLipB) (Escherichia coli, UniProt P60720, R71A); settings: CoA:LipB 10:1, 50 mM Tris, 200 mM NaCl, pH 7.8, 283 K

Row | SMILES | 15N TROSY-HSQC NMR titration [1] | 1H STD NMR; 31P NMR [2] | 31P NMR [3] | 1H STD NMR [4] | 1H STD NMR [5]
1 | CCCCCCCC(=O)SCCNC(=O)CCNC(=O)[C@H](O)C(C)(C)COP(=O)(O)OP(=O)(O)OC[C@H]1O[C@@H](n2cnc3c(N)ncnc32)[C@H](O)[C@@H]1OP(=O)(O)O [C8-CoA] | The pattern of amide perturbations though confirmed that E. coli LipB binds C8-CoA | – | – | – | –
2 | CC(C)(COP(=O)(O)OP(=O)(O)OC[C@H]1O[C@@H](n2cnc3c(N)ncnc32)[C@H](O)[C@@H]1OP(=O)(O)O)[C@@H](O)C(=O)NCCC(=O)NCCS [CoA] | – | visible in both the spectra, suggesting binding of CoA with the mutants | upfield change in chemical shift upon addition of WT LipB | STD spectra for CoA in the presence of WT LipB, LipBK135A/C169A (catalytically inactive double mutant) | visible in both the spectra, suggesting binding of CoA with the mutants
